Source: US6331555A, “Treatment of platelet derived growth factor related disorders such as cancers” (priority 1999, dated 2001)
Read-outs that look alike come from different tables or passages of the source.

Experiments:
[1] = system: A172; experiment: Tumor cell line growth; format: cell-based; conditions: Homo sapiens, A 172, 96 h; glioma, 4 days
Experimental: (§1) The assay measures protein content of acid-fixed cells using the counterion binding dye sulforhodamine B (SRB, Sigma). […] For other cell lines, the cells (2000 cells/well in 100 μL) were introduced into wells immediately after dispensing the drug solutions. After 4 days (37° C., 5% CO2) the monolayers were washed 3 times with PBS and fixed with 200 μL ice-cold 10% TCA (Fisher Scientific), and kept at 4° C. for 60 min. The TCA was removed and the fixed monolayers were washed 5 times with tap water and allowed to dry completely at room temperature on absorbent paper. The cellular protein was stained for 10 min with 100 μL 0.4% SRB dissolved in 1% acetic acid. After 5 washes with tap water, the dye was solubilized in 10 mM Tris base (100 μL per well) and absorbance read at 570 nm on a Dynatech plate reader model MR5000. Growth inhibition data are expressed as a percentage of absorbance detected in control wells which were treated with 0.4% DMSO alone. DMSO controls were not different from cells grown in regular growth medium. IC50 values were determined using a four parameter curve fit function.
(§2) For K562, DlB, L1210, 7TDl, T27A, and Colo320 DM cells, an MTT assay was used to assess cell growth. […] The cells were incubated at 37° C. for 4 days in a humidified 7% CO2 atmosphere. At the end point, […] of MTT (5 mg/mL in PBS, Sigma) was added to each well. The plates were incubated at 37° C. for 4 hr followed by addition of […] of solubilization solution (20% w/v of SDS in 50% N, N-dimethylformamide, pH 4.7) to each well. The plates were incubated overnight in a sealed container with a humidified atmosphere. The absorbance was determined at 570 nm wavelength with a reference wavelength of 630 nm using an ELISA plate reader.

[2] = system: A375; experiment: Tumor cell line growth; format: cell-based; conditions: Homo sapiens, A-375, 96 h; melanoma, 4 days
Experimental: as §1, §2

[3] = system: A431; experiment: Tumor cell line growth; format: cell-based; conditions: Homo sapiens, A-431, 96 h; epidermoid, 4 days
Experimental: as §1, §2

[4] = system: A549; experiment: Tumor cell line growth; format: cell-based; conditions: Homo sapiens, A549, 96 h; lung, 4 days
Experimental: as §1, §2

[5] = system: BT474; experiment: Tumor cell line growth; format: cell-based; conditions: Homo sapiens, BT-474, 96 h; breast, 4 days
Experimental: as §1, §2

[6] = system: Calu-3; experiment: Tumor cell line growth; format: cell-based; conditions: Homo sapiens, Calu-3, 96 h; lung, 4 days
Experimental: as §1, §2

[7] = system: Calu-6; experiment: Tumor cell line growth; format: cell-based; conditions: Homo sapiens, Calu-6, 96 h; lung, 4 days
Experimental: as §1, §2

[8] = system: Colo 320DM; experiment: Tumor cell line growth; format: cell-based; conditions: Homo sapiens, 96 h, colon, 4 days
Experimental: as §1, §2

[9] = system: DU145; experiment: Tumor cell line growth; format: cell-based; conditions: Homo sapiens, DU-145, 96 h; prostate, 4 days
Experimental: as §1, §2

[10] = system: HBL100; experiment: Tumor cell line growth; format: cell-based; conditions: Homo sapiens, HBL-100, 96 h; breast, 4 days
Experimental: as §1, §2

[11] = system: MDA MB 361; experiment: Tumor cell line growth; format: cell-based; conditions: Homo sapiens, MDA-MB-361, 96 h; breast, 4 days
Experimental: as §1, §2

[12] = system: MDA MB 468; experiment: Tumor cell line growth; format: cell-based; conditions: Homo sapiens, MDA-MB-468, 96 h; breast, 4 days
Experimental: as §1, §2

[13] = system: Ovcar3; experiment: Tumor cell line growth; format: cell-based; conditions: Homo sapiens, OVCAR-3, 96 h; ovarian, 4 days
Experimental: as §1, §2

[14] = system: PA-1; experiment: Tumor cell line growth; format: cell-based; conditions: Homo sapiens, PA-1, 96 h; ovarian, 4 days
Experimental: as §1, §2

[15] = system: SF763T; experiment: Tumor cell line growth; format: cell-based; conditions: Homo sapiens, 96 h; glioma, 4 days
Experimental: as §1, §2

[16] = system: SF763; experiment: Tumor cell line growth; format: cell-based
Experimental: as §1, §2

[17] = system: SF767T; experiment: Tumor cell line growth; format: cell-based; conditions: Homo sapiens
Experimental: as §1, §2

[18] = system: SF767; experiment: Tumor cell line growth; format: cell-based
Experimental: as §1, §2

[19] = system: SKOV3T; experiment: Tumor cell line growth; format: cell-based; conditions: Homo sapiens
Experimental: as §1, §2

[20] = system: T47D; experiment: Tumor cell line growth; format: cell-based; conditions: Homo sapiens, 96 h, breast, 4 days
Experimental: as §1, §2

[21] = system: T98G; experiment: Tumor cell line growth; format: cell-based; conditions: Homo sapiens, 96 h, glioma, 4 days
Experimental: as §1, §2

[22] = system: U118MG; experiment: Tumor cell line growth; format: cell-based; conditions: Homo sapiens, U-118-MG, 96 h; glioma, 4 days
Experimental: as §1, §2

[23] = system: U1240; experiment: Tumor cell line growth; format: cell-based; conditions: 96 h; glioma, 4 days
Experimental: as §1, §2

[24] = system: U1242; experiment: Tumor cell line growth; format: cell-based; conditions: 96 h; glioma, 4 days
Experimental: as §1, §2

[25] = system: U138MG; experiment: Tumor cell line growth; format: cell-based; conditions: Homo sapiens, U138-MG, 96 h; glioma, 4 days
Experimental: as §1, §2

[26] = system: U373MG; experiment: Tumor cell line growth; format: cell-based; conditions: Homo sapiens, U373 MG, 96 h; glioma, 4 days
Experimental: as §1, §2

[27] = system: tumor xenografts; experiment: Xenografts of various tumor types in mice; format: in vivo
Experimental: Cell lines were grown in appropriate medium (see Appendix 1). Cells were harvested at or near confluency with 0.05% Trypsin-EDTA and pelleted at 450×g for 10 min. Pellets were resuspended in sterile PBS or media (without FBS) to a particular concentration and the cells were implanted into the hindflank of mice. Tumor growth was measured over 3 to 6 weeks using venier calipers. Tumor volumes were calculated as a product of length×width×height unless otherwise indicated. P values were calculated using the Students' t-test.

[28] = PDGF-R expression ++, read-out: SRB

Cc1oncc1C(=O)Nc1ccc(C(F)(F)F)cc1 [Compound A10, 5-methylisoxazole-4 carboxylic acid-(4-trifluromethyl)-anilide]
IC50 [1]: 32 µM
IC50 [2]: 25 µM
IC50 [3]: 34 µM
IC50 [4]: 118 µM
IC50 [5]: > 100 µM
IC50 [6]: > 400 µM
IC50 [7]: 70 µM
IC50 [8]: 34 µM
IC50 [9]: > 100 µM
IC50 [10]: > 400 µM
IC50 [11]: 200 µM
IC50 [12]: 150 µM
IC50 [13]: > 100 µM
IC50 [14]: 40 µM
IC50 [15]: 0.8 µM
IC50 ([16]; SF763, 96 h, glioma, 4 days, read-out: IC50): 110 µM
IC50 ([16]; SF763, PDGF-R expression -, read-out: SRB): > 100 µM
IC50 ([17]; 96 h, glioma, 4 days, read-out: IC50): 3 µM
IC50 [17, 28]: 3 µM
IC50 ([18]; SF767, 96 h, glioma, 4 days, read-out: IC50): 87 µM
IC50 ([18]; SF767, PDGF-R expression -, read-out: SRB): 100 µM
IC50 ([19]; 96 h, ovarian, 4 days, read-out: IC50): 40 µM
IC50 [19, 28]: 50 µM
IC50 [20]: 195 µM
IC50 [21]: 62 µM
IC50 [22]: 150 µM
IC50 [23]: 250 µM
IC50 [24]: 19 µM
IC50 [25]: > 400 µM
IC50 [26]: 115 µM
growth of xenografts ([27]; 12 to 20 mg/kg/day, glioma, SKOV3T, PA-1, A375, PC-3, Calu-6, D1B, L1210): effectively inhibited the growth
inhibition of glioma growth ([27]; xenografted gliomas in mice, some animals, relative to untreated controls): greater than 95%
